Assay results from patent publication US7183276B2, “Azole compounds” (Takeda Pharmaceutical Company Limited, priority 2002, dated 2007).

How the values were obtained:
[1] = tested on: diabetic neuropathy model (streptozotocin-injected rats); assay: Motor nerve conduction velocity in STZ diabetic neuropathy model rats; format: in vivo; details: male SD rats, STZ 70 mg/kg diabetic neuropathy model; 3 mg/kg orally in 0.5% methyl cellulose; average value ± SD (n = 7–8)
Method: (§1) To 6-week-old male SD rats (CLEA Japan, Inc.) was injected 70 mg/kg body weight of streptozotocin (STZ) from the tail vein to form a diabetic neuropathy model.
(§2) After raising for one month, 3 mg/kg of compound (compound of Example 5 or Example 226) suspended in 0.5% methyl cellulose was orally administered to the rats. For the control group, a 0.5% aqueous methyl cellulose suspension free of the aforementioned compound was administered.
After the completion of the administration, the rats were anesthetized with Nembutal, the body temperature was maintained at a constant level using a hot plate at 37° C. and a desk lamp, needle electrodes were placed on the above-knee region and ankle, stimulated using Neuropack 2 (NIHON KOHDEN CORPORATION) principally at 1.6 mA and the evoked potential was detected from the plantar part. The Motor Nerve Conduction Velocity (MNCV) was calculated from the distance between different electrodes and latency difference of waveforms.

BDNF = BDNF content of ischiadic nerve of STZ diabetic neuropathy model rats (sandwich ELISA); format: in vivo; details: male SD rats, STZ 70 mg/kg diabetic neuropathy model, 3 mg/kg orally in 0.5% methyl cellulose, ischiadic nerve supernatant, average value ± SD (n = 7–8)
Method: as §1, §2
After the evaluation of the nerve conduction velocity, the ischiadic nerve was taken from the rat, a lysis buffer (0.1M Tris-HCl buffer containing 1M sodium chloride, 2% BSA, 2 mM EDTA, 80 trypsin unit/L of aprotinin, pH 7.6) in a 20-fold amount of the wet weight of ischiadic nerve was added and the mixture was subjected to ultrasonication and centrifugal separation (15,000 rpm, 60 min.), and the BDNF content of the supernatant was measured.
The BDNF content was measured by sandwich ELISA Method using anti-BDNF polyclonal antibody (Promega) and biotinated anti-BDNF antibody (G1641, Promega). The results are shown in [Table 20].

## CCOP(=O)(Cc1ccc(NC(=O)CCc2oc(-n3cnc4ccccc43)nc2-c2ccc(Cl)cc2)cc1)OCC [Example 5, 3-[2-(1H-benzimidazol-1-yl)-4-(4-chlorophenyl)-5-oxazolyl]-N-[4-(diethylphosphonomethyl)phenyl]propionamide]
other
  melting point: 159 to 160 °C
[1]
  MNCV (Motor Nerve Conduction Velocity): 52.7 ± 5.0 m/s
BDNF
  BDNF (content of ischiadic nerve): 2.6 ± 0.7 ng/g
